# Data published in the OPERA property sets (Mansouri et al. 2018).
SMILES,boiling point [°C],log10 vapour pressure (mmHg),melting point [°C],ready biodegradability,log10 Koc (L/kg),log10 Henry constant (atm·m³/mol)
COC(=O)CCl,130,0.882,-32.1,readily biodegradable,,
Clc1ccc2nccnc2c1,,,64,,,
O=c1cc[nH]c(=O)[nH]1,,-4.33,338,,,
O=[N+]([O-])c1cc(Cl)cc(Cl)c1O,,,122,not readily biodegradable,,
C[C@H]1CC[C@@H]2[C@H](C1)C2(C)C,169,,,,,
CSc1c(N)nc(N)nc1Cl,,,,,2.08,
CC1CC(C)(C)CC1=O (stereo unspecified),160,,-25.6,,,
CC1CC=CC1,65.7,,-161,,,
CC(=O)Oc1ccccc1C(=O)O,,-4.6,135,readily biodegradable,,
CC(C)C1(C)N=C(c2ncccc2C(=O)O)NC1=O (stereo unspecified),,,171,,2,
O=C(O)C(=O)Nc1ccccc1,,,150,,,
Cc1ccnc(C)c1,158,0.5,-64,readily biodegradable,,-5.17
CCSCC(C)C,134,,,,,
CCOC(=O)c1ncn2c1CN(C)C(=O)c1cc(F)ccc1-2,,,202,,,
COP(=S)(OC)Oc1ccc([N+](=O)[O-])c(C)c1,,-4.27,3.4,readily biodegradable,2.63,-6.03
CCN(CC)CCN,144,,,,,
NCCNCCNCCNCCN,342,,-30,,,
Cc1cc(Cl)[nH]n1,258,,118,,,
C=CCCCCCCCCCCCCCCCC,,-4.17,17.5,,,
Ic1ccccc1I,287,,27,,,
Clc1cc(Cl)c2nsnc2c1Cl,,,122,,,
NNC(=O)c1ccccc1[N+](=O)[O-],,,124,,,

SMILES,boiling point [°C],log10 vapour pressure (mmHg),melting point [°C],ready biodegradability,log10 Koc (L/kg),log10 Henry constant (atm·m³/mol)
CC(CO)N(C)C (stereo unspecified),150,,,,,
CCCCCCCCCF,168,,1,,,
COC(=O)c1c(C)cc(OC(=O)c2c(C)cc(O)c(C=O)c2O)c(C)c1O,,,195,,,
S=C(Nc1cccc2ccccc12)Nc1cccc2ccccc12,,,208,,,
Cc1nccnc1C,156,,,,,
CCC(C)CCBr (stereo unspecified),148,,,,,
CCC(C)Nc1c([N+](=O)[O-])cc(C(C)(C)C)cc1[N+](=O)[O-] (stereo unspecified),,-4.9,60,,3.98,
C[C@@H]1C[C@H]2[C@@H]3CCC4=CC(=O)C=C[C@]4(C)[C@@]3(F)[C@@H](O)C[C@]2(C)[C@H]1C(=O)CO,,,217,,,
CN(C)C(=O)NC1CCCCCCC1,,,138,,,
Nc1ccc(S(=O)(=O)F)cc1,,,68.5,,,
CC1=CCCC(=O)C1,201,,-21,,,
CC(C)=CC1C(C(=O)OCc2cccc(Oc3ccccc3)c2)C1(C)C (stereo unspecified),,-6.84,,,,
CC(C)OC(=O)COc1cc(Cl)c(Cl)cc1Cl,,,45,,,
NC(=O)c1ncccc1O,,,195,,,
O=[N+]([O-])c1cccc(CO)c1,,,30.5,,,
c1ccc2c(c1)[nH]c1ccccc12,355,-6.12,246,not readily biodegradable,3.4,-6.94
COc1cc2c(cc1OC)[C@@]13CCN4CC5=CCO[C@H]6CC(=O)N2[C@H]1[C@H]6[C@H]5C[C@H]43,,,178,,,
CC(Cl)C(Cl)(Cl)C=O (stereo unspecified),164,,,,,
O=[N+]([O-])c1cc[n+]([O-])cc1,,,160,,,
Nc1cnn(-c2ccccc2)c(=O)c1Cl,,-6.35,205,,2.08,
CN(C)C=Nc1ccccc1,127,,,,,
O=Cc1cc(Cl)ccc1Cl,232,,58,,,

SMILES,boiling point [°C],log10 vapour pressure (mmHg),melting point [°C],ready biodegradability,log10 Koc (L/kg),log10 Henry constant (atm·m³/mol)
CC(O)C(C)O[N+](=O)[O-] (stereo unspecified),,,,,,-7
ClC(Cl)I,132,,,,,
O=[N+]([O-])c1cccc(CBr)c1,,,59.3,,,
CC1=CCC2CC1C2(C)C (racemic),156,,-60.5,,,
Nc1ccc(N)c2c1C(=O)c1ccccc1C2=O,,-9.7,268,,,
NS(=O)(=O)c1ccc(N2CCCCS2(=O)=O)cc1,,,181,,,
C=CC=CC(=O)O,,,79,,,
CC(=O)O[C@@H]1C[C@]2(O)[C@H](CC[C@]3(C)[C@@H](c4ccc(=O)oc4)CC[C@@]32O)[C@@]2(C)CC[C@H](O[C@@H]3O[C@H](CO)[C@@H](O)[C@H](O)[C@H]3O)C=C12,,,169,,,
COC(=O)Nc1nc2ccc(C(=O)c3ccc(F)cc3)cc2[nH]1,,,260,,,
CCNc1nc(Cl)nc(NC(C)C)n1,,-6.54,173,not readily biodegradable,2.24,
COC(=O)C(C)(C)C,101,,,,,-3.37
NS(=O)(=O)c1ccc([N+](=O)[O-])cc1,,,179,,,
N#Cc1cccc(C(=O)O)c1,,,219,,,
C[C@]12CC[C@@H]3c4ccc(O)cc4CC[C@H]3[C@@H]1C[C@@H](O)[C@@H]2O,,,282,,,
Cc1cc(C(C)(C)C)cc(C(C)(C)C)c1O,269,,51,,,
CC(Br)C(C)(C)Br (stereo unspecified),,,7,,,
CCCC(=O)Oc1c(Br)cc(C#N)cc1Br,,,,,3.03,
O=C1C=CC(=O)N1c1ccccc1,,,90.5,,,
CC(Cl)(Cl)C(=O)O,188,-0.821,-5,,0.4,
O=C(O)c1cccc2cccnc12,,,187,,,
CCN(CC)C(=O)CC(C)C,211,,,,,
Cc1ccc(N=Cc2ccccc2)cc1,318,,35,,,
